Data: patent US20030207830A1, “Mutant NDP kinases for antiviral nucleotide analog activation and therapeutic uses thereof” (priority 2002, published 2003)

Legend:
[1] = molecular target: T1, Dictyostelium discoideum NDP kinase (Dd-NDPK) variant N119S, SEQ ID NO: 1 (Dictyostelium discoideum, UniProt P22887, N119S); test: Pre-steady-state phosphotransfer, fluorescence stopped-flow; type: biochemical; settings: for k2/Ks: catalytic efficiency of phosphotransfer, N119S, pre-steady state
T1 construct: made in house
Experimental: (§1) (A) Kinetics of reaction of phosphorylated Dictyostelium wild type and N119S NDP kinases by 100 μM Acyclovir diphosphate (Acy-DP). The phosphorylated enzyme was prepared with a stoichiometry #1 as described (Deville-Bonne 1996). The kinases were preincubated with ATP in excess in buffer T (50 mM Tris-HCl, pH 7.5, 5 mM MgCl2 and 75 mM KCl). The increase in fluorescence upon mixing the phospho-enzyme (1 μM, final concentration) with Acy-DP in buffer T at 20° C. was monitored with a stopped-flow. The solid lines represent the best fit of each curve to a monoexponential.
(§2) (B) Concentration dependence of the rate constant on Acy-DP concentation. The pseudo-first order rate constant for the reaction (kobs) was plotted against Acy-DP.
(§3) All numbers in italics have already been published (Schneider, 1998, 2000) The kinetic constants were measured at the pre-steady-state level using a fluorescence stopped-flow device. The binding constants were determined at equilibrium by recording the increase in fluorescence (Schneider, 2000). Values are the average of three independent determinations.
(§4) Wild type human NDPK-A and the mutants were expressed and purified according to Schneider et al., 2000, Mol Pharm. Recombinant wild type and mutant Dd-NDPK were obtained as described (Schneid, 1998a), except for N119Y NDP kinase which was partially purified by Q sepharose FF chromatography. Each protein was characterized by […] electrophoresis. The concentration of 17 kDa subunits of the enzyme was either determined by Bradford assay ([…]) or using an absorbance coefficient of ΔA^280=1.249 for a 1 mg/mL solution of human wild type and N115S NDPK-A, and =0.55 for wild type and mutant N119S, N119T Dd-NDP kinases, respectively.
(§5) As the diphosphate form of analogs were not always available, the triphosphate analogs were used to study phosphate transfer in reaction as in Scheme I. Experiments were performed with an Hi-Tech DX2 microvolume stopped-flow reaction (Schneider, 1998) at Aexc=296 nm (for Ado derivatives) or […] (for other nucleotides), 2 mm excitation slit and a 320 nm cutoff filter at the emission. After mixing NDPK (1 μM) and NTP or an analogTP (10-500 μM), the intrinsic protein fluorescence was recorded for 10-200 sec. In each experiment, 400 pairs of data were recorded, and the data from 3-4 identical experiments were averaged and fitted to a number of non-linear analytical equations using the software provided by Hi-Tech. All curves fitted to single exponentials.
(§6) The data were analyzed using the reaction scheme: [drawing 1]
(§7) In both the forward and the reverse reactions, the product concentration remains very low, thus the product binding can be neglected, and the observed single step could be attributed to the phosphotransfer (Schneider, 1998). The rate of this observed single step is: [formula]
(§8) and reaches a limiting value (k+2) at NTP saturation. Saturation could not be obtained with the concentrations of any NTP used here. Therefore, catalytic efficiencies of phosphorylation (CEphos=k+2/(k−1/k+1)=k+2/KS) were measured, which are equivalent to second order constants and allow a reliable comparison of a variety of NDP kinase substrates.

[2] = molecular target: T2, Dictyostelium discoideum NDP kinase (Dd-NDPK), wild type (Dictyostelium discoideum, UniProt P22887); test: as above; type: biochemical; settings: catalytic efficiency of phosphotransfer, wt
T2 construct: made in house
Experimental: as §1, §2, §3, §4, §5, §6, §7, §8

[3] = molecular target: T3, Dictyostelium NDP Kinase wt (Dictyostelium discoideum, UniProt P22887); test: Pre-steady-state fluorescence stopped-flow phosphotransfer from nucleoside triphosphates, wild type Dd-NDPK; type: biochemical; settings: average of three determinations
T3 construct: made in house
Experimental: (§9) The binding constants were determined at equilibrium by recording the increase in fluorescence (Schneider, 2000).
After mixing NDPK (1 μM) and NTP or an analogTP (10-500 μM), the intrinsic protein fluorescence was recorded for 10-200 sec. In each experiment, 400 pairs of data were recorded, and the data from 3-4 identical experiments were averaged and fitted to a number of non-linear analytical equations using the software provided by Hi-Tech.
as §6
The rate of this observed single step is: [formula]
(§10) and reaches a limiting value (k+2) at NTP saturation. […] Therefore, catalytic efficiencies of phosphorylation (CEphos=k+2/(k−1/k+1)=k+2/KS) were measured, which are equivalent to second order constants and allow a reliable comparison of a variety of NDP kinase substrates.

[4] = molecular target: T4, Dictyostelium discoideum NDP kinase inactive variant EI-N119S (H122G-F64W-N119S) (Dictyostelium discoideum, UniProt P22887, F64W/H122G/N119S); test: biochemical; type: binding
T4 construct: made in house
Experimental: as §9
(§11) Analog binding affinity was measured using a variant of Dd-NDPK (EI) as described (Schneider, 2000). […] The mutation N119S was inserted in EI in order to measure the nucleotide affinity by fluorescence titration.
(§12) Altered bases as compared to the wild type sequence are underlined in bold. Sequences were checked by automatic sequencing. The mutant EI-N119S was obtained by mutation of the previously described F64W-H122G mutated NDP kinase (here called EI) (Schneider 2000).

[5] = molecular target: T5, Dictyostelium discoideum NDP kinase inactive variant EI (H122G-F64W) (Dictyostelium discoideum, UniProt P22887, F64W/H122G); test: biochemical; type: binding
T5 construct: made in house
Experimental: as §9, §11, §12

[6] = molecular target: T6, Dictyostelium NDP Kinase N119S (Dictyostelium discoideum, UniProt P22887, N119S); test: Pre-steady-state fluorescence stopped-flow phosphotransfer from nucleoside triphosphates, N119S Dd-NDPK; type: biochemical; settings: pre-steady state, stopped-flow; average of three determinations
T6 construct: made in house
Experimental: as §3, §5, §6, §7, §8

[7] = system: human pancreatic adenocarcinoma cell lines; settings: 4-fold overexpression of mitochondrial deoxyguanosine kinase; cited from earlier work
[8] = molecular target: T7, Inactive-N119S Dd-NDPK (EI-N119S) (Dictyostelium discoideum, UniProt P22887, F64W/H122G/N119S); test: Equilibrium fluorescence titration of nucleotide binding, inactive Dd-NDPK variant with N119S; settings: relative affinity of NTP for both enzymes
T7 construct: made in house
Experimental: as §3
In contrast to what is observed with natural nucleotides, the Ser mutation specifically improves the catalytic efficiency with nucleotides analogs as shown in Table I; ddGTPs and AZT-TP react, respectively, 1.5 and 4 times faster with the N119S enzyme. […] Analog binding affinity was measured using a variant of Dd-NDPK (EI) as described (Schneider, 2000). This mutant (H122G-F64W) lacks the catalytic histidine, and a tryptophan replaces the phenylalanine stacking on the base in the active site (Schneider, 2000). The mutation N119S was inserted in EI in order to measure the nucleotide affinity by fluorescence titration. The Ser contribution to the binding was evaluated from the relative affinity of NTP for both enzymes (Table I).
as §12, with “for N119S, N119T and N119Y mutations, respectively. Altered” for “Altered”

[9] = molecular target: T8, human NDP kinase A (NDPK-A, nm23-H1), wild type (Homo sapiens, UniProt P15531); test: Pre-steady-state phosphotransfer, fluorescence stopped-flow; type: biochemical; settings: catalytic efficiency of phosphotransfer, NDPK-A, pre-steady state
T8 construct: made in house
Experimental: (§13) FIG. 3 depicts the catalytic efficiency of NDPK-A and mutants for nucleoside analogs. The rates of phosphorylation of pure recombinant NDP kinases (1 μM) were measured at the pre-steady state in a fluorescence stopped-flow with d4T-TP (10 to 80 μM). The catalytic efficiency (expressed in M^−1s^−1) was determined from the variation of the rate as a function of analog as shown in FIG. 2 (▾, NDPK-A, ♦ L55H, ● N115S, ▪ L55H-N115S).
(§14) The activity assays were performed at the pre-steady state level.
as §4
as §5, with “Hi-Tech.” for “Hi-Tech. All curves fitted to single exponentials.”
as §6, §7, §10

[10] = molecular target: T9, human NDP kinase A (NDPK-A) variant L55H-N115S, SEQ ID NO: 3 (Homo sapiens, UniProt P15531, L55H/N115S); test: as above; type: biochemical; settings: for k2/Ks: catalytic efficiency of phosphotransfer
T9 construct: made in house; host or cells: E. coli
Experimental: as §13, §14
(§15) R, the specificity change, is the ratio of the catalytic efficiencies (for analog versus natural nucleotide) of the mutant compared to the wild type enzyme.
as §4
as §5, with “Hi-Tech.” for “Hi-Tech. All curves fitted to single exponentials.”
as §6, §7, §10

[11] = molecular target: T10, human NDP kinase A (NDPK-A) variant L55H (Homo sapiens, UniProt P15531, L55H); test: as above; type: biochemical; settings: for k2/Ks: catalytic efficiency of phosphotransfer
T10 construct: made in house; host or cells: E. coli
Experimental: as §13, §14, §15, §4
as §5, with “Hi-Tech.” for “Hi-Tech. All curves fitted to single exponentials.”
as §6, §7, §10

[12] = molecular target: T11, human NDP kinase A (NDPK-A) variant N115S, SEQ ID NO: 2 (Homo sapiens, UniProt P15531, N115S); test: as above; type: biochemical; settings: for k2/Ks: catalytic efficiency of phosphotransfer
T11 construct: made in house; host or cells: E. coli
Experimental: as §13, §14, §15, §4
as §5, with “Hi-Tech.” for “Hi-Tech. All curves fitted to single exponentials.”
as §6, §7, §10

[13] = Dd-NDPK mutant; cited from earlier work
[14] = ratio of catalytic efficiencies analog vs natural nucleotide, mutant vs wild type

T6 sequence (P22887 whole entry N119S): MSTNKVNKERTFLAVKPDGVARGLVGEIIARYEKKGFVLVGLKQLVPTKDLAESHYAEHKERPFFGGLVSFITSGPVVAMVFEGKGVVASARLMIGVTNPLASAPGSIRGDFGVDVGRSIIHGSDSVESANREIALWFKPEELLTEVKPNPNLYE
T1 sequence (P22887 whole entry N119S): as above
T2 sequence (P22887 whole entry): as the sequence (P22887 whole entry N119S) above, with S119N counted along it
T3 sequence (P22887 whole entry): as the sequence (P22887 whole entry N119S) above, with S119N counted along it
T5 sequence (P22887 whole entry F64W/H122G): as the sequence (P22887 whole entry N119S) above, with F64W, S119N, H122G counted along it
T10 sequence (P15531 whole entry L55H): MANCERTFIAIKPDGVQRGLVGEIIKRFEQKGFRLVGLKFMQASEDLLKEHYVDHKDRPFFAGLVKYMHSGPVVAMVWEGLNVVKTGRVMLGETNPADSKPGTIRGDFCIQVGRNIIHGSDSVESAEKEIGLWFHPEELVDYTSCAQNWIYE
T4 sequence (P22887 whole entry F64W/N119S/H122G): as the sequence (P22887 whole entry N119S) above, with F64W, H122G counted along it
T11 sequence (P15531 whole entry N115S): as the sequence (P15531 whole entry L55H) above, with H55L, N115S counted along it
T9 sequence (P15531 whole entry L55H/N115S): as the sequence (P15531 whole entry L55H) above, with N115S counted along it
T8 sequence (P15531 whole entry): as the sequence (P15531 whole entry L55H) above, with H55L counted along it
T7 sequence (P22887 whole entry F64W/N119S/H122G): as the sequence (P22887 whole entry N119S) above, with F64W, H122G counted along it

Molecule	k2/Ks [1] [M⁻¹ s⁻¹]	k2/Ks [2] [M⁻¹ s⁻¹]	k2/Ks wt (catalytic efficiency of phosphotransfer) [3] [M⁻¹ s⁻¹]	Kd [4] [nM]	Kd [5] [nM]	k2/Ks N119S (catalytic efficiency of phosphotransfer) [6] [M⁻¹ s⁻¹]	sensitivity of cells [7]	other results
Nc1ncnc2c1ncn2[C@@H]1O[C@H](COP(=O)(O)OP(=O)(O)OP(=O)(O)O)[C@@H](O)[C@H]1O [ATP]	250000	4.5e+06	4.5e+06	2400	200	250000	–	–
Nc1nc(Cl)nc2c1ncn2[C@H]1C[C@H](O)[C@@H](CO)O1 [CdA]	–	–	–	–	–	–	enhanced sensitivity	–
Nc1nc2c(ncn2[C@@H]2O[C@H](COP(=O)(O)OP(=O)(O)OP(=O)(O)O)[C@@H](O)[C@H]2O)c(=O)[nH]1 [GTP]	700000	8e+06	8e+06	1100	150	700000	–	–
Nc1nc2c(ncn2COCCOP(=O)(O)OP(=O)(O)OP(=O)(O)O)c(=O)[nH]1 [acyclovirTP, acyclovir-TP]	–	–	–	–	–	1650	–	factor by which Ser 119 reinforces affinity (EI-N119S versus EI) [8]: 10 fold
Nc1nc2c(ncn2COCCOP(=O)(O)OP(=O)(O)OP(=O)(O)O)c(=O)[nH]1 [acyclovirTP]	1650	350	–	20000	190000	–	–	ranking as analog substrate ([1]; N119S NDP kinase): best analog substrate; k2/Ks [9]: 25 M⁻¹ s⁻¹; increase of affinity by Ser (N119S) ([4]; relative KD, EI versus EI-N119S): 10 fold; k2/Ks ([10]; L55H-N115S, pre-steady state): 2600 M⁻¹ s⁻¹; Specificity change (R) [10, 14]: (460); k2/Ks ([11]; L55H, pre-steady state): 160 M⁻¹ s⁻¹; Specificity change (R) [11, 14]: (3.4); k2/Ks ([12]; N115S, pre-steady state): 250 M⁻¹ s⁻¹; Specificity change (R) [12, 14]: (150)
Nc1nc2c(ncn2[C@@H]2O[C@H](CO)[C@@H](O)[C@@H]2O)c(=O)[nH]1 [araG]	–	–	–	–	–	–	enhanced sensitivity	–
Nc1nc2c(ncn2[C@@H]2O[C@H](CO)[C@@H](O)C2(F)F)c(=O)[nH]1 [dFdG]	–	–	–	–	–	–	enhanced sensitivity	–
Cc1cn([C@H]2C[C@H](O)[C@@H](COP(=O)(O)OP(=O)(O)OP(=O)(O)O)O2)c(=O)[nH]c1=O [dTTP]	430000	5.7e+06	5.7e+06	5200	1200	430000	–	k2/Ks [9]: 1.2e+06 M⁻¹ s⁻¹; factor of rate versus wild type NDPK-A ([10]; L55H-N115S, pre-steady state): 0.33; k2/Ks ([10]; L55H-N115S, pre-steady state): 450000 M⁻¹ s⁻¹; factor of rate versus wild type NDPK-A ([11]; L55H, pre-steady state): 1.8; k2/Ks ([11]; L55H, pre-steady state): 2e+06 M⁻¹ s⁻¹; factor of rate versus wild type NDPK-A ([12]; N115S, pre-steady state): 0.08; k2/Ks ([12]; N115S, pre-steady state): 100000 M⁻¹ s⁻¹
Nc1ncnc2c1ncn2[C@H]1CC[C@@H](COP(=O)(O)OP(=O)(O)OP(=O)(O)O)O1 [ddATP]	2700	1300	–	2600	4600	2700	–	–
K16A: Dd-NDPK with Lys 16 mutated into Ala (Schneider 2001) (protein, UniProt P22887 1-155, looked up, variant K16A) Nucleoside diphosphate …: MSTNKVNKERTFLAVAPDGVARGLVGEIIARYEKKGFVLVGLKQLVPTKDLAESHYAEHKERPFFGGLVSFITSGPVVAMVFEGKGVVASARLMIGVTNPLASAPGSIRGDFGVDVGRNIIHGSDSVESANREIALWFKPEELLTEVKPNPNLYE	–	–	–	–	–	–	–	factor of decrease of catalytic constant of phosphotransfer [13]: 100
